In publication PMC2792609, “Effect of methomyl on hepatic mixed function oxidases in rats” (Indian Journal of Pharmacology, 2008):

Columns and labels:
Serum cholinesterase = biological target: T1, Serum cholinesterase (Rattus norvegicus, UniProt Q9JKC1); experiment: Serum cholinesterase activity; type: in vivo; settings: female rats; for Serum cholinesterase: for 3 days; for depression of acetyl cholinesterase activity: 3 days
T1 construct: from tissue; host or cells: rat serum

plasma ChE = settings: methomyl aerosol, male rats, repeated inhalation; cited from earlier work
Alkaline phosphatase = experiment: Serum alkaline phosphatase activity; type: in vivo, rat; settings: for increase in serum alkaline phosphatase activity: 3 days
Description: Adult male rats (weighing 200-230 g) were divided into four groups of six animals each. Group 1 received an equivalent amount of saline and served as control. Animals from group 2, 3, and 4 were given methomyl 1, 2, and 4 mg/kg body weight i.p. respectively, between 8: 00 a.m. and 9:00 a.m., for three consecutive days. In the second set of experiments, adult male rats were divided into four groups. Animals from group 2, 3, and 4 were injected with 4 mg/kg body weight methomyl for one, three, and five successive days. The volume injected into the rats of body weight 200 g was 1 ml. In another experiment, adult female rats and old male rats (weighing 350-450 g, 8 months old) were divided into two groups of six animals each. […]
Alanine aminotransferase and aspartate aminotransferase activity was measured using the Reitman and Frankel[12] method. Alkaline phosphatase activity was measured using Span diagnostic kits.[13] Cholinesterase activity was measured using the kinetic test method of Knedel et al.[14]

cytochrome b5 = experiment: Hepatic microsomal cytochrome b5 level; type: in vivo, rat
Description: (§1) Adult male rats (weighing 200-230 g) were divided into four groups of six animals each. Group 1 received an equivalent amount of saline and served as control. Animals from group 2, 3, and 4 were given methomyl 1, 2, and 4 mg/kg body weight i.p. respectively, between 8: 00 a.m. and 9:00 a.m., for three consecutive days. In the second set of experiments, adult male rats were divided into four groups. Animals from group 2, 3, and 4 were injected with 4 mg/kg body weight methomyl for one, three, and five successive days. The volume injected into the rats of body weight 200 g was 1 ml. In another experiment, adult female rats and old male rats (weighing 350-450 g, 8 months old) were divided into two groups of six animals each. Group 2 of each category received methomyl (4 mg/kg body weight, i.p., for three successive days), and group 1 of each category received an equivalent amount of saline and served as the control group.
(§2) The rats were sacrificed by cervical dislocation, 24 hours after the last dose. Their livers were perfused in situ with ice cold 1.15% KCl containing 0.05 mM EDTA, rapidly excised, blotted dry, weighed, minced and homogenized with two volumes of ice cold 0.25 M sucrose solution, in a Potter-Elvehjem type homogenizer. The homogenate was centrifuged at 10,000 × g for 10 min, in a refrigerated centrifuge (REMI C-24). The microsomes were isolated by the procedure described by of Cinti et al.[4] The microsomal pellet was suspended in phosphate buffer (0.1 M, pH 7.4) and the suspension was used for the microsomal enzyme assays. Microsomal protein content was measured by the Biuret method, using bovine serum albumin as the standard.[5]
(§3) The microsomal electron transport components (cytochrome P450 and cytochrome b5) were determined using Hitachi UV-Visible double beam recording spectrophotometer, by the procedure of Omura and Sato.[67] Cytochrome c reductase activity was determined using the method recommended by Masters et al.[8] Aminopyrine N-demethylase activity was assayed according to the procedure described by Schenkman et al.[9] Formaldehyde liberated during N-demethylation was estimated by the procedure described by Nash.[10] Aniline hydroxylase assay was performed using the procedure reported by Govindwar and Dalvi.[11]

Aniline hydroxylase = experiment: Hepatic microsomal aniline hydroxylase activity; type: in vivo, rat; settings: for decrease in the activity of aniline hydroxylase / decrease in activity of aniline hydroxylase: vs control
Description: as §1, §2, §3

Cytochrome c reductase = experiment: Hepatic microsomal cytochrome c reductase activity; type: in vivo, rat
Description: as §1, §2, §3

Hemoglobin = Hemoglobin content; type: in vivo, rat; settings: for decrease in hemoglobin content: 3 days
Description: Group 1 received an equivalent amount of saline and served as control. Animals from group 2, 3, and 4 were given methomyl 1, 2, and 4 mg/kg body weight i.p. respectively, between 8: 00 a.m. and 9:00 a.m., for three consecutive days. […] Animals from group 2, 3, and 4 were injected with 4 mg/kg body weight methomyl for one, three, and five successive days. The volume injected into the rats of body weight 200 g was 1 ml. […]
Hemoglobin was measured using HLS-hemosafe reagent. The color obtained was measured colorimetrically at 530 nm.

[1] = female rats, 1 mg/kg body weight i.p., for 3 days
[2] = female rats, 2 mg/kg body weight i.p., for 3 days
[3] = female rats, 4 mg/kg body weight i.p., for 3 days
[4] = male rats, 1 mg/kg body weight i.p., for three days
[5] = male rats, 2 mg/kg body weight i.p., for three days
[6] = male rats, 4 mg/kg body weight i.p., for three days
[7] = adult female rat, 4 mg/kg i.p., three days, vs control
[8] = adult female rats, 4 mg/kg body weight, i.p., three days
[9] = adult male rats, 1 mg/kg i.p., for 3 days
[10] = adult male rats, 2 mg/kg i.p., for 3 days
[11] = adult male rats, 4 mg/kg i.p., for 3 days
[12] = adult male rats, 4 mg/kg i.p., one, three and five days
[13] = adult rats, 4 mg/kg i.p., 1 day of treatment
[14] = adult rats, 4 mg/kg i.p., 3 days of treatment
[15] = adult rats, 4 mg/kg i.p., 5 days of treatment
[16] = old male rat, 4 mg/kg i.p., three days, vs control
[17] = old male rats, 4 mg/kg body weight, i.p., three days

T1 sequence (Q9JKC1 24-597): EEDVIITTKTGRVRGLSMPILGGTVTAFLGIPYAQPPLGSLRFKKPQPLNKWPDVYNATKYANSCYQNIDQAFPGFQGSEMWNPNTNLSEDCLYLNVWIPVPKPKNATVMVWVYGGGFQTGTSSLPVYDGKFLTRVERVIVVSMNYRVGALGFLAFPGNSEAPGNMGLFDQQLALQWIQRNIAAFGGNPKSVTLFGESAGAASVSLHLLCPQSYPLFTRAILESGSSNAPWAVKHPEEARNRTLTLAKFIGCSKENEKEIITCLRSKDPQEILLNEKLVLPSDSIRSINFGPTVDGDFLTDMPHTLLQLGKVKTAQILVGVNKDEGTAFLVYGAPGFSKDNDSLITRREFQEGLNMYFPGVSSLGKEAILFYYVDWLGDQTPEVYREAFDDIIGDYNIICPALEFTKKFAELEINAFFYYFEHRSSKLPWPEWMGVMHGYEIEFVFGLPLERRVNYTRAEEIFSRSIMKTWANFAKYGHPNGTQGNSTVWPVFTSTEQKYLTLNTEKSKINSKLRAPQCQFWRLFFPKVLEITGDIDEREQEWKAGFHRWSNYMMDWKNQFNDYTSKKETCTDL

## CNC(=O)ON=C(C)SC [methomyl, S-methyl-N-(methyl carbomyl)-thioacetimidate]
Serum cholinesterase; 1 mg/kg body weight i.p.
  Serum cholinesterase: 1343 u/l
Serum cholinesterase; 1 mg/kg i.p.
  depression of acetyl cholinesterase activity: 46%
Serum cholinesterase; 2 mg/kg body weight i.p.
  Serum cholinesterase: 1193 u/l
Serum cholinesterase; 2 mg/kg i.p.
  depression of acetyl cholinesterase activity: 52%
Plasma ChE
  effect on plasma ChE: marked suppression
Alkaline phosphatase; [1]
  Alkaline phosphatase: 19.0 KA units
Alkaline phosphatase; female rats, 1 mg/kg i.p.
  increase in serum alkaline phosphatase activity: 33%
Alkaline phosphatase; [2]
  Alkaline phosphatase: 23.0 KA units
Alkaline phosphatase; female rats, 2 mg/kg i.p.
  increase in serum alkaline phosphatase activity: 61%
Alkaline phosphatase; [3]
  Alkaline phosphatase: 26.7 KA units
Alkaline phosphatase; female rats, 4 mg/kg i.p.
  increase in serum alkaline phosphatase activity: 87%
Alkaline phosphatase; [4]
  Alkaline phosphatase: 23.4 KA units
Alkaline phosphatase; male rats, 1 mg/kg i.p.
  increase in serum alkaline phosphatase activity: 14%
Alkaline phosphatase; [5]
  Alkaline phosphatase: 26.4 KA units
Alkaline phosphatase; male rats, 2 mg/kg i.p.
  increase in serum alkaline phosphatase activity: 29%
Alkaline phosphatase; [6]
  Alkaline phosphatase: 28.6 KA units
Alkaline phosphatase; male rats, 4 mg/kg i.p.
  increase in serum alkaline phosphatase activity: 39%
Cytochrome b5; [7]
  decrease in the level of cytochrome b5: 21%
Cytochrome b5; [8]
  Cytochrome b5: 0.15 nmole/mg protein
Cytochrome b5; [9]
  Cytochrome b5: 0.16 nmole/mg protein
Cytochrome b5; [10]
  Cytochrome b5: 0.20 nmole/mg protein
Cytochrome b5; [11]
  Cytochrome b5: 0.19 nmole/mg protein
Cytochrome b5; [12]
  change in cytochrome b5: No significant change
Cytochrome b5; adult male rats, all the three doses (1, 2 and 4 mg/kg i.p., 3 days)
  change in cytochrome b5: No significant change
Cytochrome b5; [13]
  Cytochrome b5: 0.25 nmole/mg protein
Cytochrome b5; [14]
  Cytochrome b5: 0.29 nmole/mg protein
Cytochrome b5; [15]
  Cytochrome b5: 0.28 nmole/mg protein
Cytochrome b5; [16]
  decrease in cytochrome b5: 51%
Cytochrome b5; [17]
  Cytochrome b5: 0.20 nmole/mg protein
Aniline hydroxylase; adult female rat, 4 mg/kg i.p., three days
  decrease in the activity of aniline hydroxylase: 43%
Aniline hydroxylase; [8]
  Aniline hydroxylase: 0.45 nmole of p-aminophenol formed/min/mg/microsomal protein
Aniline hydroxylase; [9]
  Aniline hydroxylase: 1.35 nmole of p-aminophenol formed/min/mg microsomalprotein
Aniline hydroxylase; [10]
  Aniline hydroxylase: 1.17 nmole of p-aminophenol formed/min/mg microsomalprotein
Aniline hydroxylase; adult male rats, 4 mg/kg i.p., 3 days
  decrease in the activity of aniline hydroxylase: 27%
Aniline hydroxylase; adult male rats, 4 mg/kg i.p., five days
  decrease in activity of aniline hydroxylase: 17%
Aniline hydroxylase; [11]
  Aniline hydroxylase: 0.80 nmole of p-aminophenol formed/min/mg microsomalprotein
Aniline hydroxylase; adult male rats, 4 mg/kg i.p., one day
  decrease in activity of aniline hydroxylase: 47%
Aniline hydroxylase; adult male rats, 4 mg/kg i.p., three days
  decrease in activity of aniline hydroxylase: 71%
Aniline hydroxylase; [13]
  Aniline hydroxylase: 0.60 nmole of p-aminophenol formed/min/mg/microsomal protein
Aniline hydroxylase; [14]
  Aniline hydroxylase: 0.33 nmole of p-aminophenol formed/min/mg/microsomal protein
Aniline hydroxylase; [15]
  Aniline hydroxylase: 0.93 nmole of p-aminophenol formed/min/mg/microsomal protein
Aniline hydroxylase; [17]
  Aniline hydroxylase: 1.80 nmole of p-aminophenol formed/min/mg/microsomal protein
Cytochrome c reductase; [7]
  decrease in the activity of cytochrome c reductase: 42%
Cytochrome c reductase; [8]
  Cytochrome c reductase: 23.07 nmole of cytochrome c reduced/min/mg microsomal protein
Cytochrome c reductase; [9]
  Cytochrome c reductase: 35.73 nmole of cytochrome c reduced/min/mg microsomal protein
Cytochrome c reductase; [10]
  Cytochrome c reductase: 32.80 nmole of cytochrome c reduced/min/mg microsomal protein
Cytochrome c reductase; adult male rats, 4 mg/kg i.p., 3 days, vs control
  increase in cytochrome c reductase activity: 14%
Cytochrome c reductase; [11]
  Cytochrome c reductase: 36.93 nmole of cytochrome c reduced/min/mg microsomal protein
Cytochrome c reductase; [12]
  change in the activity of cytochrome c reductase: No significant change
Cytochrome c reductase; [13]
  Cytochrome c reductase: 31.3 nmole of cytochrome c reduced/min/mg microsomal protein
Cytochrome c reductase; [14]
  Cytochrome c reductase: 26.7 nmole of cytochrome c reduced/min/mg microsomal protein
Cytochrome c reductase; [15]
  Cytochrome c reductase: 24.2 nmole of cytochrome c reduced/min/mg microsomal protein
Cytochrome c reductase; [16]
  decrease in cytochrome c reductase: 7%
Cytochrome c reductase; [17]
  Cytochrome c reductase: 33.30 nmole of cytochrome c reduced/min/mg microsomal protein
Hemoglobin; female rat, 1 mg/kg i.p.
  decrease in hemoglobin content: 21%
Hemoglobin; female rat, 2 mg/kg i.p.
  decrease in hemoglobin content: 21%
Hemoglobin; female rat, 4 mg/kg i.p.
  decrease in hemoglobin content: 29%
Hemoglobin; [1]
  Hemoglobin: 10.06 g/dL
Hemoglobin; [2]
  Hemoglobin: 10.00 g/dL
Hemoglobin; [3]
  Hemoglobin: 9.06 g/dL
Hemoglobin; male rat, 1 mg/kg i.p.
  decrease in hemoglobin content: 16%
Hemoglobin; male rat, 2 mg/kg i.p.
  decrease in hemoglobin content: 25%
Hemoglobin; male rat, 4 mg/kg i.p.
  decrease in hemoglobin content: 29%
Hemoglobin; [4]
  Hemoglobin: 9.60 g/dL
Hemoglobin; [5]
  Hemoglobin: 8.60 g/dL
Hemoglobin; [6]
  Hemoglobin: 8.10 g/dL
